From ChEMBL document CHEMBL1777689 (Bioorg Med Chem Lett, 2011)
pEC50, pIC50: −log10 of the molar value. Values after ≈ are worked out from the molar mass of the structure shown. Active and inactive are the calls of the source. No cut-off for these calls is given here.

Columns and labels:
CYP2C9 = CYP2C9 (Homo sapiens, UniProt P11712); assay: Inhibition of CYP2C9 at 3 uM; format: ADME
CYP2D6 = CYP2D6 (Homo sapiens, UniProt P10635); assay: Inhibition of CYP2D6 at 3 uM; format: ADME
CYP3A4 = CYP3A4 (Homo sapiens, UniProt P08684); assay: Inhibition of CYP3A4 at 3 uM; format: ADME
[1] = Aqueous solubility of the compound; format: physicochemical; conditions: buffer
[2] = Half life in human liver microsomes; format: ADME, Microsome
[3] = Half life in mouse liver microsomes; format: ADME, Microsome
[4] = Half life in rat liver microsomes; format: ADME, Microsome
[5] = biological target: Heat shock protein HSP 90-alpha (Homo sapiens, UniProt P07900)
[6] = biological target: Voltage-gated inwardly rectifying potassium channel KCNH2 (Homo sapiens, UniProt Q12809)
[7] = biological target: Tyrosine-protein kinase Fyn (Homo sapiens, UniProt P06241); assay: Inhibition of FYN
[8] = biological target: Proto-oncogene tyrosine-protein kinase Src (Homo sapiens, UniProt P12931); assay: Inhibition of SRC-related membrane-associated tyrosine kinase
[9] = Half life in CD-1 mouse at 2 mg/kg, iv; format: ADME, organism-based; parameters: dose 2 mg/kg, route intravenous; conditions: in vivo
[10] = AUC (0 to infinity) in CD-1 mouse at 2 mg/kg, iv; format: ADME, organism-based; parameters: time infinity, dose 2 mg/kg, route intravenous; conditions: plasma
[11] = Plasma clearance in CD-1 mouse at 2 mg/kg, iv; format: ADME, organism-based; parameters: dose 2 mg/kg, route intravenous
[12] = Volume of distribution at steady state in CD-1 mouse at 2 mg/kg, iv; format: ADME, organism-based; parameters: dose 2 mg/kg, route intravenous; conditions: in vivo, read-out: Vdss
[13] = Half life in CD-1 mouse at 10 mg/kg, po; format: ADME, organism-based; parameters: dose 10 mg/kg, route oral; conditions: in vivo
[14] = AUC (0 to infinity) in CD-1 mouse at 10 mg/kg, po; format: ADME, organism-based; parameters: time infinity, dose 10 mg/kg, route oral; conditions: plasma
U-87MG ATCC [15] = conditions: Homo sapiens
U-87MG ATCC [16] = conditions: Homo sapiens; remark: listed apart in the source
U-87MG ATCC [17] = conditions: Homo sapiens; remark: listed apart in the source
[18] = Bioavailability in CD-1 mouse at 10 mg/kg, po; conditions: in vivo
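Throughout, for pEC50: antiproliferative effect on human HCT116 cells, read out by luminescence.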

Chain of CYP3A4 (P08684 whole entry): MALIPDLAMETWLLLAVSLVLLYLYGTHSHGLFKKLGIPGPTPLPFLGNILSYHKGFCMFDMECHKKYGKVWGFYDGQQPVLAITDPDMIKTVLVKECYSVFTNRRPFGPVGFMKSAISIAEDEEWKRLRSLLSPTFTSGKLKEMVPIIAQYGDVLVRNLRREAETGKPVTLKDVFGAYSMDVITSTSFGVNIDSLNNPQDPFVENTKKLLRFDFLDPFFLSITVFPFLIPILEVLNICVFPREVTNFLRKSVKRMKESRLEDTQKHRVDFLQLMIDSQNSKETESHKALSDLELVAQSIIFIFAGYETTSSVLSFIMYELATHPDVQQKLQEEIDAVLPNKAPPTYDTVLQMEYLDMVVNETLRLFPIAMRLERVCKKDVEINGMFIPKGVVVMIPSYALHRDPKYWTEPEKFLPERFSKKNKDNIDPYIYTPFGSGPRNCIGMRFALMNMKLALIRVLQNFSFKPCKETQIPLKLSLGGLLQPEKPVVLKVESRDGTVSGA
Chain of CYP2D6 (P10635 whole entry): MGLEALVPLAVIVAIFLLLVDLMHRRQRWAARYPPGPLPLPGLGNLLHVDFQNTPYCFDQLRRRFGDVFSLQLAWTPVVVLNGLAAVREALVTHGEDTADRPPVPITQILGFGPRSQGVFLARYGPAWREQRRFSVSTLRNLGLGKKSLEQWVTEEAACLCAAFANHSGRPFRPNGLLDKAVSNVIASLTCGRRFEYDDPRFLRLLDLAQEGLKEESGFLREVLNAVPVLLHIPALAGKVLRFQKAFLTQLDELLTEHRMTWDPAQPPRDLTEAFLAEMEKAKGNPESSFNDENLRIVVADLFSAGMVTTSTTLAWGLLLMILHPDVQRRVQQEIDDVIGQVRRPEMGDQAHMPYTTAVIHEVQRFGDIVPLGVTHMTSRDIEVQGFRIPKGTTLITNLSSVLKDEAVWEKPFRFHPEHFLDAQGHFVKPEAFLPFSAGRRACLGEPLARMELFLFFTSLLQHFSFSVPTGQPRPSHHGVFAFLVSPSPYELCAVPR
Chain of Voltage-gated inwardly rectifying potassium channel KCNH2 (Q12809 whole entry): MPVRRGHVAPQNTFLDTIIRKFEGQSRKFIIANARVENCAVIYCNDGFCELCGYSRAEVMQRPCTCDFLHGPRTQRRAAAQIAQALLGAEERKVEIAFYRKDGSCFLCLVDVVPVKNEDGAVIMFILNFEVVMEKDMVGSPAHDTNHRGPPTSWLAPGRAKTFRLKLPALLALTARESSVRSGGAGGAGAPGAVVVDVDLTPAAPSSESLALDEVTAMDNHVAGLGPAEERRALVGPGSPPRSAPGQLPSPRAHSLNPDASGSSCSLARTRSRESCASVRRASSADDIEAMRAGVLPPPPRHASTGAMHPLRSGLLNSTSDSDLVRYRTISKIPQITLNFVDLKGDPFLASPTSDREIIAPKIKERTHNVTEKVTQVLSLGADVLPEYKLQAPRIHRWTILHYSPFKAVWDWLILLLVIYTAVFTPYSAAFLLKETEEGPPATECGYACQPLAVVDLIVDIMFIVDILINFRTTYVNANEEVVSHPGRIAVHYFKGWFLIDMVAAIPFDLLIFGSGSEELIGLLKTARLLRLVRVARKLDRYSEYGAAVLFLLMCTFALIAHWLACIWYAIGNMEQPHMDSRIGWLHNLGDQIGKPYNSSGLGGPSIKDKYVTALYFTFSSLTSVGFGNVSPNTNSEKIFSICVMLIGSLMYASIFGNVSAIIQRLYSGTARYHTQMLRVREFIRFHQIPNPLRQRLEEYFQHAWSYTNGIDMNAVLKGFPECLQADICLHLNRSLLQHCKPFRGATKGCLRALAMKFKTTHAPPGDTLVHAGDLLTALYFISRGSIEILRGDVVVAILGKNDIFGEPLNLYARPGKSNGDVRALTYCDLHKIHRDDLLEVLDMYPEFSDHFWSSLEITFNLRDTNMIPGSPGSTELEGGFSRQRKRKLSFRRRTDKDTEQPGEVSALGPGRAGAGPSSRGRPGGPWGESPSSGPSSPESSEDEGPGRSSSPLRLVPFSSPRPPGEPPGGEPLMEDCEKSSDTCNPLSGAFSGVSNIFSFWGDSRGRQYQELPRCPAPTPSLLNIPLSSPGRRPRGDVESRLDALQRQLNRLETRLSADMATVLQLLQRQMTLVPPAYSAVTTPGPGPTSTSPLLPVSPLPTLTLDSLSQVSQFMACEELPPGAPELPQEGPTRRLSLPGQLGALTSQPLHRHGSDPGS
Chain of CYP2C9 (P11712 whole entry): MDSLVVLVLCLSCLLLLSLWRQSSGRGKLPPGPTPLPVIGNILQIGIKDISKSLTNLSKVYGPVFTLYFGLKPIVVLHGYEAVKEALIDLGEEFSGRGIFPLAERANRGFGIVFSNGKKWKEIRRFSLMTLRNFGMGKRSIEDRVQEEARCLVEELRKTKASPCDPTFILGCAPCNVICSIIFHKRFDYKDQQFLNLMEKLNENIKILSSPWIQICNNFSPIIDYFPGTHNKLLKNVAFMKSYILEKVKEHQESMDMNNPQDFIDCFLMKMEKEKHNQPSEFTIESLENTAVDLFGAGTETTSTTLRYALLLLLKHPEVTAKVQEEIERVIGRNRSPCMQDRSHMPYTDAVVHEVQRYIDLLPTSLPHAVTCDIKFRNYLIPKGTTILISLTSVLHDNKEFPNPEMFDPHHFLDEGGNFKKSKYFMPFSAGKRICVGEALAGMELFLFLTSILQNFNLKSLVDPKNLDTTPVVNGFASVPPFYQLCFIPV
Chain of Proto-oncogene tyrosine-protein kinase Src (P12931 2-536 limits assumed): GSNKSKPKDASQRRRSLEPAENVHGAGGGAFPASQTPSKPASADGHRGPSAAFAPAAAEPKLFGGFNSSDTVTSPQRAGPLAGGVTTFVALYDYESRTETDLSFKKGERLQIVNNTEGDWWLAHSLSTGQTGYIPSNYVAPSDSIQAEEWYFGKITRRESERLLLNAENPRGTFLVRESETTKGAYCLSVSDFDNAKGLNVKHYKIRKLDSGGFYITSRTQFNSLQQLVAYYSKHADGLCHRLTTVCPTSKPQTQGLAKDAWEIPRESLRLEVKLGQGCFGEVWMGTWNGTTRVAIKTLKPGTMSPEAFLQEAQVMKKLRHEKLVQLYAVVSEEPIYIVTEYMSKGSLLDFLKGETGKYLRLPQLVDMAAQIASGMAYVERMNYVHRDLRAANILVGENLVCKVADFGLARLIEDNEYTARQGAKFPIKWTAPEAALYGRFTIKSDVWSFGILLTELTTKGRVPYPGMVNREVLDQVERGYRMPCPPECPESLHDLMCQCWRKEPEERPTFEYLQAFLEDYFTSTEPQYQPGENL
Chain of Tyrosine-protein kinase Fyn (P06241 whole entry): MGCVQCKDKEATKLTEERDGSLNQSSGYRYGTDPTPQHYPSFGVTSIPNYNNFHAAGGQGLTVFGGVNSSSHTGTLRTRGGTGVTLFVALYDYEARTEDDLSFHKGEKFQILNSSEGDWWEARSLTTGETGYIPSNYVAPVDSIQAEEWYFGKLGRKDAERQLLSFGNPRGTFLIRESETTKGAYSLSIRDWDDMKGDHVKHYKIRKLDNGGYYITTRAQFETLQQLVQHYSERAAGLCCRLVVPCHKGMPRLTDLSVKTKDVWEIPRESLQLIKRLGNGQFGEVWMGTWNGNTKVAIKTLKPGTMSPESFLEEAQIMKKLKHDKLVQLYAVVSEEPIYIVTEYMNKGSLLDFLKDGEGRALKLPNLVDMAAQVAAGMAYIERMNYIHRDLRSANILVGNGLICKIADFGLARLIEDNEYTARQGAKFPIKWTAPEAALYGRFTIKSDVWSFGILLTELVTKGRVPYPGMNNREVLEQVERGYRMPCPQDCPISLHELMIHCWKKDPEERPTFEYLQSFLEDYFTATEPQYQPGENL

| Structure (SMILES) | inhibition at 3 µM (CYP2C9) [%] | inhibition at 3 µM (CYP2D6) [%] | inhibition at 3 µM (CYP3A4) [%] | solubility ([1]; read-out: solubility) [µg/mL] | half-life [2] [min] | half-life [3] [min] | half-life [4] [min] | pIC50 [5] | pIC50 [6] | pEC50 (HCT-116) | further results |
| --- | --- | --- | --- | --- | --- | --- | --- | --- | --- | --- | --- |
| Cc1c2c(n3c1CCCN1CCOC[C@@H]1CNc1cc-3ccc1C(N)=O)CC(C)(C)CC2=O | 39 | 0 | 71 | 29 (≈ 64.4 µM) | 3 | 7 | 3 | 7.02 | 4.90 | 7.47 |  |
| Cc1c2c(n3c1CCCCN1CCC[C@@H]1CNc1cc-3ccc1C(N)=O)CC(C)(C)CC2=O | 0 | 2 | 67 | > 100 | 5 | 11 | 8 | 6.52 |  | 6.63 |  |
| Cc1c2c(n3c1CCCN1CCC[C@H]1CNc1cc-3ccc1C(N)=O)CC(C)(C)CC2=O |  |  |  |  |  |  |  |  |  | 5.94 | solubility [1]: 66 µg/mL (≈ 152 µM) |
| Cc1c2c(n3c1CCCN1C[C@@H](N4CCCC4)C[C@@H]1CNc1cc-3ccc1C(N)=O)CC(C)(C)CC2=O | 3 | 69 | 34 | 71 (≈ 141 µM) |  |  | 5 | 6.30 |  | 5.61 |  |
| Cc1c2c(n3c1CCC(=O)N1CCC[C@@H]1CNc1cc-3ccc1C(N)=O)CC(C)(C)CC2=O |  |  |  |  |  |  |  | 6.73 |  | 6.51 |  |
| Cc1c2c(n3c1CCCN1CCCC[C@@H]1[C@H](C)Nc1cc-3ccc1C(N)=O)CC(C)(C)CC2=O | 4 | 4 | 55 | 35 (≈ 75.7 µM) | 3 | 6 | 7 | 6.77 | 5.82 | 7.17 |  |
| Cc1c2c(n3c1CCCN1CCCC[C@@H]1CNc1cc-3ccc1C(N)=O)CC(C)(C)CC2=O | 0 | 16 | 77 | 52 (≈ 116 µM) | 8 | 27 | 3 | 6.90 |  | 7.49 |  |
| Cc1c2c(n3c1CCCN1CC[C@H](CNc4cc-3ccc4C(N)=O)C1)CC(C)(C)CC2=O | 2 | 0 | 53 | > 100 | 23 | > 30 | 21 | 6.70 | 6.36 | 7.00 |  |
| Cc1c2c(n3c1CCCNC(=O)[C@H](C)Nc1cc-3ccc1C(N)=O)CC(C)(C)CC2=O | 23 | 5 | 6 | > 100 | 4 | > 30 | > 30 | 7.09 |  | 7.25 |  |
| Cc1c2c(n3c1CCCN1CC[C@@H](C1)Nc1cc-3ccc1C(N)=O)CC(C)(C)CC2=O | 25 | 23 | 70 | 49 (≈ 117 µM) |  |  | 5 | 6.01 |  | 6.17 |  |
| CC(=O)N[C@H]1C[C@@H]2CNc3cc(ccc3C(N)=O)-n3c(c(C)c4c3CC(C)(C)CC4=O)CCCN2C1 |  |  |  |  |  |  |  | 6.20 |  | 5.59 |  |
| Cc1c2c(n3c1CCCN1C[C@@H](F)C[C@@H]1CNc1cc-3ccc1C(N)=O)CC(C)(C)CC2=O | 46 | 9 | 77 | 3 (≈ 6.63 µM) | 4 | 5 | 2 | 7.21 | 4.79 | 7.22 |  |
| Cc1c2c(n3c1CCCN1CCC[C@@H](C1)Nc1cc-3ccc1C(N)=O)CC(C)(C)CC2=O | 74 | 12 | 76 | 16 (≈ 36.8 µM) | 2 | 3 | 8 | 7.11 | 5.47 | 7.41 |  |
| Cc1c2c(n3c1CCCN1CC[C@@H](CNc4cc-3ccc4C(N)=O)C1)CC(C)(C)CC2=O |  |  |  |  |  |  |  | < 5.30 |  | 5.53 |  |
| Cc1c2c(n3c1CCN1CCC[C@@H]1CNc1cc-3ccc1C(N)=O)CC(C)(C)CC2=O | 0 | 6 | 32 | 6 (≈ 14.3 µM) |  |  | 6 | 6.05 |  | 6.34 |  |
| Cc1c2c(n3c1CCCN1CCNC[C@H]1CNc1cc-3ccc1C(N)=O)CC(C)(C)CC2=O | 12 | 3 | 1 | > 100 | > 30 | > 30 | > 30 | 5.48 |  | 5.73 |  |
| Cc1c2c(n3c1CCCN1CCC[C@@H]1CNc1cc-3ccc1C(N)=O)CC(C)(C)CC2=O | 6 |  |  | 2320 (≈ 5350 µM) |  |  | 6 |  | 5.59 |  | pIC50 [7]: 4.66; pIC50 [8]: < 4.30; half-life [9]: 276 min; AUC(0-inf) [10]: 1740 ng·h/mL; clearance [11]: 19 mL/min/kg; Vd [12]: 5.3 L/kg; half-life [13]: 312 min; AUC(0-inf) [14]: 6460 ng·h/mL; inhibition (U-87MG ATCC [15]): Active; inhibition (U-87MG ATCC [16]): Active; inhibition (U-87MG ATCC [17]): Active; bioavailability [18]: 74% |
| Cc1c2c(n3c1CCCN1C[C@H](O)C[C@@H]1CNc1cc-3ccc1C(N)=O)CC(C)(C)CC2=O | 9 | 33 | 64 | 67 (≈ 149 µM) | 3 | 7 | 10 | 6.82 |  | 6.72 |  |
| CC(=O)N1CCN2CCCc3c(C)c4c(n3-c3ccc(C(N)=O)c(c3)NC[C@H]2C1)CC(C)(C)CC4=O | 15 | 4 | 34 | > 100 | 14 | 5 | 3 | 6.97 | 4.61 | 6.85 |  |
